Source: patent publication US8685967B2, “Substituted triazolopyridines and analogs thereof” (Merck Sharp & Dohme Corp., priority 2009, dated 2014)

Molecular target: T1, Human recombinant PDE10A1 (Homo sapiens, UniProt Q9Y233)
T1 construct: purchased BPS Bioscience, Inc
Test: In Vitro PDE10 Assay (scintillation proximity assay, [3H]cAMP)
Type: biochemical
Conditions: PDE10A1 0.02 nM, 10 nM [3H]cAMP, 30 minutes at room temperature; Ki by Cheng and Prusoff
Method: PDE10A1 activity was measured in white opaque 384-well Opti-Plates (Perkin Elmer Life Sciences) using a scintillation proximity assay (GE Healthcare). Human recombinant PDE10A1 was purchased from BPS Bioscience, Inc. The reaction mixture contained PDE10A1 (0.02 nM), 10 nM [^3H]cAMP ([5′,8-^3H]Adenosine 3′,5′-cyclic phosphate, ammonium salt], Amersham) and various concentrations of compound in 50 mM Tris-HCl, pH 7.5, 8.3 mM MgCl2, […] and 0.2% bovine serum albumen in a total volume of 30 μl. The assay was initiated with the addition of substrate and was allowed to proceed for 30 minutes at room temperature before being stopped by the addition of 300 μg yttrium SPA PDE beads. The reaction mixtures were thoroughly mixed, and the beads were allowed to settle for 30 minutes. The plates were then counted in a TopCount scintillation counter. Under these conditions, less than 30% of the substrate was hydrolyzed in the absence of compound. Ki values were determined as described by Cheng and Prusoff (1973).

T1 sequence (Q9Y233 1-779 isoform Q9Y233-1): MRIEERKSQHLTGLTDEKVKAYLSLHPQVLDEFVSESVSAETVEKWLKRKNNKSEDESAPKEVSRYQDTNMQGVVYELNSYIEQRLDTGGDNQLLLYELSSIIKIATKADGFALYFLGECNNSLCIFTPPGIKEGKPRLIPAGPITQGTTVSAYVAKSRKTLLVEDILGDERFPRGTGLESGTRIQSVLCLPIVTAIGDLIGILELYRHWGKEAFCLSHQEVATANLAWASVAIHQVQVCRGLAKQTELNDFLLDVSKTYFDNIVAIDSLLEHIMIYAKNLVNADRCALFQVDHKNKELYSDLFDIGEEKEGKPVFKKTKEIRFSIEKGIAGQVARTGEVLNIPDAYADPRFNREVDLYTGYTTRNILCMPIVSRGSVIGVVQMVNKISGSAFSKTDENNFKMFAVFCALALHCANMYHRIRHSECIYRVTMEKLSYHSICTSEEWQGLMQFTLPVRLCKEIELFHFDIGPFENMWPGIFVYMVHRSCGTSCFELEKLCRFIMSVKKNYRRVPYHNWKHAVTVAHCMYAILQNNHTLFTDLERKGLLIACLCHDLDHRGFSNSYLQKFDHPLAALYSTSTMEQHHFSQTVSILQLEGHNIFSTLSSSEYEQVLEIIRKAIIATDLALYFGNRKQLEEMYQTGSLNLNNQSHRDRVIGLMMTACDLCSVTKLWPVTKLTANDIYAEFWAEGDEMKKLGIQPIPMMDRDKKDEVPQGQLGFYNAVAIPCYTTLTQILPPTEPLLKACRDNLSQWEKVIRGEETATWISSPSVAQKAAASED

CC(C)(C)c1nnc2c(C(=O)NCCc3nc4ccc(F)cc4[nH]3)cccn12 [Example 1AA] and CC(C)(C)c1nnc2c(C(=O)NCCc3nc4cc(Cl)ccc4[nH]3)cccn12 [Example 1Z] cannot be ordered by Ki: < 50 nM for the first, < 10 nM for the second.

O=C(NCCc1nc2ccccc2[nH]1)c1cccn2c(C(F)(F)F)nnc12 [Example 1A] and O=C(NCCc1nc2cc(Cl)ccc2[nH]1)c1cccn2c(C(F)(F)F)nnc12 [Example 1B] cannot be ordered by Ki: < 50 nM for the first, < 50 nM for the second.

O=C(NCCc1nc2cc(Cl)ccc2[nH]1)c1cccn2c(C3CCC3)nnc12 [Example 1BBB] and O=C(NCCc1nc2cc(Cl)ccc2[nH]1)c1cccn2c(C3CC3)nnc12 [Example 1R] cannot be ordered by Ki: < 50 nM for the first, < 50 nM for the second.

O=C(NCCc1nc2ccccc2[nH]1)c1cccn2c(C3CC3)nnc12 [Example 1BB] and O=C(NCCCc1nc2ccccc2[nH]1)c1cccn2c(C3CC3)nnc12 [Example 1O] cannot be ordered by Ki: < 50 nM for the first, < 10 nM for the second.

CC(C)c1nnc2c(C(=O)NCCc3nc4cc(Cl)c(F)cc4[nH]3)cccn12 [Example 1DDD] and CC(C)c1nnc2c(C(=O)NCCc3nc4cc(Cl)ccc4[nH]3)cccn12 [Example 1S] cannot be ordered by Ki: < 50 nM for the first, < 50 nM for the second.

CCc1nnc2c(C(=O)NCCc3nc4cc(Cl)ccc4[nH]3)cccn12 [Example 1DD] and Cc1nnc2c(C(=O)NCCc3nc4cc(Cl)ccc4[nH]3)cccn12 [Example 1FF] cannot be ordered by Ki: < 50 nM for the first, < 50 nM for the second.

COc1ccc2nc(CCNC(=O)c3cccn4c(C)nnc34)[nH]c2c1 [Example 1EE] and COc1ccc2nc(CCNC(=O)c3cccn4c(C(C)C)nnc34)[nH]c2c1 [Example 1XX] cannot be ordered by Ki: < 10 nM for the first, < 50 nM for the second.

CC(C)(C)c1nnc2c(C(=O)NCCc3nc4ccccc4[nH]3)cc(Br)cn12 [Example 1E] and CC(C)(C)c1nnc2c(C(=O)NCCCc3nc4ccccc4[nH]3)cc(Br)cn12 [Example 1Q] cannot be ordered by Ki: < 50 nM for the first, < 10 nM for the second.

O=C(NCCc1nc2cc(Cl)ccc2[nH]1)c1cc(F)cn2c(C3CC3)nnc12 [Example 1FFF] and O=C(NCCc1nc2cc(Cl)ccc2[nH]1)c1cc(Br)cn2c(C3CC3)nnc12 [Example 1HH] cannot be ordered by Ki: < 50 nM for the first, < 50 nM for the second.

CC(C)c1nnc2c(C(=O)NCCc3nc4ccccc4[nH]3)cccn12 [Example 1GG] and CC(C)(C)c1nnc2c(C(=O)NCCCc3nc4ccccc4[nH]3)cccn12 [Example 1P] cannot be ordered by Ki: < 50 nM for the first, < 10 nM for the second.

O=C(NCCc1nc2ccc(F)cc2[nH]1)c1cc(Br)cn2c(C3CC3)nnc12 [Example 1II] and O=C(NCCc1nc2ccccc2[nH]1)c1cc(Br)cn2c(C3CC3)nnc12 [Example 1I] cannot be ordered by Ki: < 50 nM for the first, < 50 nM for the second.

O=C(NCCc1nc2cc(Cl)ccc2[nH]1)c1cccn2c(Br)nnc12 [Example 1LL] and O=C(NCCc1nc2cc(Cl)ccc2[nH]1)c1cccn2nc(Br)nc12 [Example 2G] cannot be ordered by Ki: < 50 nM for the first, < 50 nM for the second.

CC(C)(C)c1nnc2c(C(=O)NCCc3nc4ccccc4[nH]3)cc(F)cn12 [Example 1MM] and O=C(NCCc1nc2ccccc2[nH]1)c1cc(F)cn2c(C3CC3)nnc12 [Example 1NN] cannot be ordered by Ki: < 50 nM for the first, < 50 nM for the second.

CC(C)(C)c1nnc2c(C(=O)NCCc3nc4cc(Cl)ccc4s3)cc(Br)cn12 [Example 1M] and CC(C)(C)c1nnc2c(C(=O)NCCc3nc4ccccc4s3)cc(Br)cn12 [Example 1N] cannot be ordered by Ki: < 10 nM for the first, < 10 nM for the second.

COc1ccc2nc(CCNC(=O)c3cccn4c(C5CCC5)nnc34)[nH]c2c1 [Example 1SS] and COc1ccc2nc(CCNC(=O)c3cccn4c(C5CC5)nnc34)[nH]c2c1 [Example 1UU] cannot be ordered by Ki: < 10 nM for the first, < 50 nM for the second.

O=C(NCCc1nc2ccc(F)cc2[nH]1)c1cccn2c(C3CC3)nnc12 [Example 1T] and O=C(NCCc1nc2cc(Cl)c(F)cc2[nH]1)c1cccn2c(C3CC3)nnc12 [Example 1ZZ] cannot be ordered by Ki: < 50 nM for the first, < 50 nM for the second.

O=C(NCCc1nc2c(Cl)cc(C(F)(F)F)cc2[nH]1)c1cccn2c(C3CC3)nnc12 [Example 1VV] and Cn1c(CCNC(=O)c2cccn3c(C4CC4)nnc23)nc2cc(Cl)ccc21 [Example 7A] cannot be ordered by Ki: < 10 nM for the first, < 50 nM for the second.

Cc1nc2c(C(=O)NCCc3nc4cc(Cl)ccc4[nH]3)cccn2n1 [Example 2B] and Cc1nnc2c(C(=O)NCCc3nc4cc(Cl)ccc4n3C)cccn12 [Example 7K] cannot be ordered by Ki: < 10 nM for the first, < 50 nM for the second.

O=C(NCCc1nc2ccc(F)cc2[nH]1)c1cc(Br)cn2nc(C3CC3)nc12 [Example 2D] and O=C(NCCc1nc2ccccc2[nH]1)c1cc(Br)cn2nc(C3CC3)nc12 [Example 2F] cannot be ordered by Ki: < 50 nM for the first, < 10 nM for the second.

CC(C)(C)c1nnc2c(C(=O)NCCc3nc4ccccc4[nH]3)cc(-c3ccncc3)cn12 [Example 4A] and CC(C)(C)c1nnc2c(C(=O)NCCCc3nc4ccccc4[nH]3)cc(-c3ccncc3)cn12 [Example 4E] cannot be ordered by Ki: < 50 nM for the first, < 50 nM for the second.

CC(C)(C)c1nnc2c(C(=O)NCCCc3nc4ccccc4[nH]3)cc(-c3cccc(O)c3)cn12 [Example 4D] and CC(C)(C)c1nnc2c(C(=O)NCCCc3nc4ccccc4[nH]3)cc(-c3cccnc3)cn12 [Example 4F] cannot be ordered by Ki: < 10 nM for the first, < 50 nM for the second.

CC(C)(C)c1nnc2c(C(=O)NCCCc3nc4ccccc4[nH]3)cc(C#CCO)cn12 [Example 5B] and Cn1c(CCNC(=O)c2cccn3c(C(C)(C)C)nnc23)nc2cc(Cl)ccc21 [Example 7E] cannot be ordered by Ki: < 50 nM for the first, < 50 nM for the second.

Cn1c(CCNC(=O)c2cccn3c(C4CC4)nnc23)nc2ccccc21 [Example 7D] and CCn1c(CCNC(=O)c2cccn3c(C(C)C)nnc23)nc2ccccc21 [Example 7O] cannot be ordered by Ki: < 50 nM for the first, < 10 nM for the second.

Cn1c(CCCNc2cccc3ccn4c(C(C)(C)C)nnc4c23)nc2ccccc21 [Example 8B] and Cn1c(CCCNc2cccc3ccn4c(C(F)(F)F)nnc4c23)nc2ccccc21 [Example 8C] cannot be ordered by Ki: < 50 nM for the first, < 50 nM for the second.

In the case of Cn1c(CCNc2cccc3ccn4c(C(F)(F)F)nnc4c23)nc2ccccc21 [Example 8], the Ki is reported as < 50 nM.
